According to US8389679B2, “Targeted antimicrobial moieties” (priority 2009, dated 2013):
“Also recorded” adds a separate entry of the source.

The substances below were run on target microorganisms (assay: Screen of synthesized peptides for binding to target microorganisms (targeting peptides, Tables 2 and 3)). Conditions: microorganism(s) the targeting peptide was identified as binding to (Table 3).
Protocol: Once noted, these peptides were batch synthesized on a multiplex peptide synthesizer, yielding 5-10 mg of each peptide that could readily be screened for biological activity (e.g., binding activity and/or antimicrobial activity.
Other suitable targeting peptides include the peptides that have been identified as binding to particular target organisms as shown in Table 3 and/or Table 4.
For “1T-52 (DEYPAKLPLSDKGATEPRRH; synthetic novel tartgeting peptide IT-52)”, the “Target(s)” value was “S. aureus; also recorded: C. xerosis; also recorded: P. aeruginosa”.
With “1T-53 (SDILAEMFEKGELQTLVKDAAAKANA; synthetic novel tartgeting peptide IT-53)” the “Target(s)” value was “P. aeruginosa”.
In the case of “1T-54 (RWVSCNPSWRIQ; synthetic novel tartgeting peptide IT-54)”, the “Target(s)” value is reported as “S. epidermidis; also recorded: C. xerosis; also recorded: C. striatum; also recorded: P. aeruginosa”.
For “1T-55 (NHKTLKEWKAKWGPEAVESWATLLG; synthetic novel tartgeting peptide IT-55)”, the “Target(s)” value was “C. xerosis; also recorded: P. aeruginosa”.
For “1T-56 (LALIGAGIWMIRKG; synthetic novel tartgeting peptide IT-56)”, the “Target(s)” value was “C. xerosis; also recorded: P. aeruginosa”.
For “1T-57 (RLEYRRLETQVEENPESGRRPMRG; synthetic novel tartgeting peptide IT-57)”, the “Target(s)” value was “P. aeruginosa”.
For “1T-58 (CDDLHALERAGKLDALLSA; synthetic novel tartgeting peptide IT-58)”, the “Target(s)” value was “P. aeruginosa”.
In the case of “1T-59 (AVGNNLGKDNDSGHRGKKHRKHKHR; synthetic novel tartgeting peptide IT-59)”, the “Target(s)” value is reported as “S. aureus; also recorded: S. epidermidis; also recorded: P. aeruginosa”.
“1T-60 (YLTSLGLDAAEQAQGLLTILKG; synthetic novel tartgeting peptide IT-60)” was tested, and the “Target(s)” value was “S. aureus; also recorded: S. epidermidis; also recorded: C. jeikeium; also recorded: C. striatum; also recorded: P. aeruginosa”.
For “1T-61 (HATLLPAVREAISRQLLPALVPRG; synthetic novel tartgeting peptide IT-61)”, the “Target(s)” value was “P. aeruginosa”.
In the case of “1T-62 (GCKGCAQRDPCAEPEPYFRLR; synthetic novel tartgeting peptide IT-62)”, the “Target(s)” value is reported as “S. epidermidis; also recorded: P. aeruginosa”.
With “1T-63 (EPLILKELVRNLFLFCYARALR; synthetic novel tartgeting peptide IT-63)” the “Target(s)” value was “S. aureus; also recorded: S. epidermidis; also recorded: C. jeikeium; also recorded: C. xerosis; also recorded: C. striatum; also recorded: P. aeruginosa”.
In the case of “1T-64 (QTVHHIHMHVLGQRQMHWPPG; synthetic novel tartgeting peptide IT-64)”, the “Target(s)” value is reported as “S. aureus; also recorded: S. epidermidis; also recorded: C. jeikeium; also recorded: C. xerosis; also recorded: C. striatum; also recorded: P. aeruginosa”.
For “1T-65 (HARAAVGVAELPRGAAVEVELIAAVRP; synthetic novel tartgeting peptide IT-65)”, the “Target(s)” value was “S. mutans; also recorded: S. aureus; also recorded: S. epidermidis; also recorded: C. jeikeium; also recorded: C. xerosis; also recorded: C. striatum; also recorded: P. aeruginosa”.
For “1T-66 (DTDCLSRAYAQRIDELDKQYAGIDKPL; synthetic novel tartgeting peptide IT-66)”, the “Target(s)” value was “S. mutans; also recorded: S. aureus; also recorded: S. epidermidis; also recorded: C. jeikeium; also recorded: C. xerosis; also recorded: C. striatum; also recorded: P. aeruginosa”.
In the case of “1T-67 (GQRQRLTCGRVSGCSEGPSREAAR; synthetic novel tartgeting peptide IT-67)”, the “Target(s)” value is reported as “S. aureus; also recorded: S. epidermidis; also recorded: C. jeikeium; also recorded: C. xerosis; also recorded: C. striatum; also recorded: P. aeruginosa”.
For “1T-68 (GGTKEIVYQRG; synthetic novel tartgeting peptide IT-68)”, the “Target(s)” value was “S. mutans; also recorded: S. aureus; also recorded: C. jeikeium; also recorded: C. xerosis; also recorded: C. striatum; also recorded: P. aeruginosa”.
In the case of “1T-69 (ILSQEADRKKLF; synthetic novel tartgeting peptide IT-69)”, the “Target(s)” value is reported as “S. mutans; also recorded: P. aeruginosa”.
With “1T-70 (NRQAQGERAHGEQQG; synthetic novel tartgeting peptide IT-70)” the “Target(s)” value was “S. aureus; also recorded: C. jeikeium; also recorded: P. aeruginosa”.
In the case of “1T-71 (KIDTNQWPPNKEG; synthetic novel tartgeting peptide IT-71)”, the “Target(s)” value is reported as “P. aeruginosa”.
With “1T-72 (EPTDGVACKER; synthetic novel tartgeting peptide IT-72)” the “Target(s)” value was “P. aeruginosa”.
For “1T-73 (GWWEELLHETILSKFKITKALELPIQL; synthetic novel tartgeting peptide IT-73)”, the “Target(s)” value was “Streptococcus; also recorded: pneumoniae”.
In the case of “1T-74 (DIDWGRKISCAAGVAYGAIDGCATTV; synthetic novel tartgeting peptide IT-74)”, the “Target(s)” value is reported as “S. pneumoniae”.
In the case of “1T-75 (GVARGLQLGIKTRTQWGAATGAA; synthetic novel tartgeting peptide IT-75)”, the “Target(s)” value is reported as “S. pneumoniae”.
With “1T-76 (EMRLSKFFRDFILWRKK; synthetic novel tartgeting peptide IT-76)” the “Target(s)” value was “S. pneumoniae”.
With “1T-77 (EMRISRIILDFLFLRKK; synthetic novel tartgeting peptide IT-77)” the “Target(s)” value was “S. pneumoniae”.
In the case of “1T-78 (FFKTIFVLILGALGVAAGLYIEKNYIDK; synthetic novel tartgeting peptide IT-78)”, the “Target(s)” value is reported as “S. pneumoniae”.
“1T-79 (FGTPWSITNFWKKNFNDRPDFDSDRRRY; synthetic novel tartgeting peptide IT-79)” was tested, and the “Target(s)” value was “S. pneumoniae”.
With “1T-80 (GGNLGPGFGVIIP; synthetic novel tartgeting peptide IT-80)” the “Target(s)” value was “S. pneumoniae”.
In the case of “1T-81 (AIATGLDIVDGKFDGYLWA; synthetic novel tartgeting peptide IT-81)”, the “Target(s)” value is reported as “S. pneumoniae”.
In the case of “1T-82 (FGVGVGIALFMAGYAIGKDLRKKFGKSC; synthetic novel tartgeting peptide IT-82)”, the “Target(s)” value is reported as “S. pneumoniae”.
In the case of “1T-83 (QKPRKNETFIGYIQRYDIDGNGYQSLPCPQN; synthetic novel tartgeting peptide IT-83)”, the “Target(s)” value is reported as “S. pneumoniae”.
For “1T-84 (FRKKRYGLSILLWLNAFTNLVNSIHAFYMTLF; synthetic novel tartgeting peptide IT-84)”, the “Target(s)” value was “S. pneumoniae”.
With “1T-85 (VMASLTWRMRAASASLPTHSRTDA; synthetic novel tartgeting peptide IT-85)” the “Target(s)” value was “A. naeslundii, F. nucleatum,; also recorded: P. gingivalis; also recorded: S. epidermidis,; also recorded: S. gordonii, S. mitis, S. mutans,; also recorded: S. oralis, S. salivarious,; also recorded: S. sanguinis”.
For “1T-86 (HRKNPVLGVGRRHRAHNVA; synthetic novel tartgeting peptide IT-86)”, the “Target(s)” value was “S. mitis, S. oralis, S. salivarious”.
For “1T-87 (EAVGQDLVDAHHP; synthetic novel tartgeting peptide IT-87)”, the “Target(s)” value was “S. mitis, S. mutans, S. oralis”.
With “1T-89 (HEDDKRRGMSVEVLGFEVVQHEE; synthetic novel tartgeting peptide IT-89)” the “Target(s)” value was “S. mitis, S. mutans”.
For “1T-90 (RNVIGQVL; synthetic novel tartgeting peptide IT-90)”, the “Target(s)” value was “S. gordonii, S. mitis, S. mutans,; also recorded: S. oralis, S. sanguinis”.
For “1T-91 (TSVRPGAAGAAVPAGAAGAAGAGWRWP; synthetic novel tartgeting peptide IT-91)”, the “Target(s)” value was “S. mitis, S. mutans, S. oralis,; also recorded: S. sanguinis”.
For “1T-92 (GQDEGQRRAGVGEGQGVDG; synthetic novel tartgeting peptide IT-92)”, the “Target(s)” value was “S. mitis, S. mutans”.
In the case of “1T-93 (AMRSVNQA; synthetic novel tartgeting peptide IT-93)”, the “Target(s)” value is reported as “S. epidermidis, S. gordonii,; also recorded: S. mitis, S. mutans,; also recorded: S. oralis, S. sanguinis”.
With “1T-94 (DQVAHSGDMLVQARRRDS; synthetic novel tartgeting peptide IT-94)” the “Target(s)” value was “S. mitis, S. mutans, S. oralis”.
With “1T-95 (GHLLRVGGRVGGVGGVAGACAQPFGGQ; synthetic novel tartgeting peptide IT-95)” the “Target(s)” value was “S. gordonii, S. mitis, S. mutans,; also recorded: S. oralis, S. sanguinis”.
For “1T-96 (VAGACAQPFGGQ; synthetic novel tartgeting peptide IT-96)”, the “Target(s)” value was “S. gordonii, S. mitis, S. mutans,; also recorded: S. oralis, S. sanguinis”.
For “1T-97 (GVAERNLDRITVAVAIIWTITIVGLGLVAKLG; synthetic novel tartgeting peptide IT-97)”, the “Target(s)” value was “A. naeslundii, F. nucleatum,; also recorded: P. gingivalis; also recorded: S. epidermidis,; also recorded: S. gordonii, S. mitis, S. mutans,; also recorded: S. oralis, S. salivarious,; also recorded: S. sanguinis”.
“1T-98 (VRSAKAVKALTAAGYTGELVNVSGGMKAWLGQ; synthetic novel tartgeting peptide IT-98)” was tested, and the “Target(s)” value was “A. naeslundii, F. nucleatum,; also recorded: P. gingivalis; also recorded: S. epidermidis,; also recorded: S. gordonii, S. mitis, S. mutans,; also recorded: S. oralis, S. salivarious,; also recorded: S. sanguinis”.
“1T-99 (MKAWLGQ; synthetic novel tartgeting peptide IT-99)” was tested, and the “Target(s)” value was “S. gordonii, S. mitis, S. mutans,; also recorded: S. oralis, S. sanguinis”.
In the case of “1T-100 (LDPLEPRIAPPGDRSHQGAPACHRDPLRGRSARDAER; synthetic novel tartgeting peptide IT-100)”, the “Target(s)” value is reported as “S. gordonii, S. mitis, S. mutans”.
With “1T-101 (RLRVGRATDLPLTSFAVGVVRNLPDAPAH; synthetic novel tartgeting peptide IT-101)” the “Target(s)” value was “A. naeslundii, P. gingivalis; also recorded: S. epidermidis,; also recorded: S. gordonii, S. mitis, S. mutans,; also recorded: S. oralis, S. sanguinis”.
In the case of “1T-102 (WKRLWPARILAGHSRRRMRWMVVWRYFAAT; synthetic novel tartgeting peptide IT-102)”, the “Target(s)” value is reported as “A. naeslundii, F. nucleatum,; also recorded: P. gingivalis; also recorded: S. epidermidis,; also recorded: S. gordonii, S. mitis, S. mutans,; also recorded: S. oralis, S. salivarious,; also recorded: S. sanguinis”.
For “1T-103 (AQFYEAIITGYALGAGQRIGQL; synthetic novel tartgeting peptide IT-103)”, the “Target(s)” value was “A. naeslundii, F. nucleatum,; also recorded: P. gingivalis; also recorded: S. epidermidis,; also recorded: S. gordonii, S. mitis, S. mutans,; also recorded: S. oralis, S. sanguinis”.
In the case of “1T-104 (RAVAAHLQGRHHGHQVRRQRHGQR; synthetic novel tartgeting peptide IT-104)”, the “Target(s)” value is reported as “S. mitis”.
